According to USRE48805E1, “Method for cancer targeting treatment and detection of arginine using albumin-binding arginine deiminase fusion protein” (Vision Global Holdings Ltd., priority 2013, dated 2021):

Key:
[1] = system: Mia-paca-2 pancreatic cancer cell xenografts; experiment: In vivo efficacy on Mia-paca-2 pancreatic cancer cell xenografts; design: species or system Nude balb/c mice (human pancreatic cancer xenograft); settings: 100 mg/kg once a week, intraperitoneal, end of the time course
Protocol: Nude balb/c mice (4-6 weeks) are used and they are allowed to acclimatize for a week before the treatment. Mice are inoculated subcutaneously with 2×10^6 cancer cells in 100 μl of 1:1 PBS:Matrigel. Matrigel is used to augment the growth of tumors. Two weeks later, the mice are randomly separated into four groups of 4 animals in each group. Mice are intraperitoneally administered with PBS (control), AAD (5 U; twice a week), Gemcitabine, Gem (100 mg/kg; once a week) or AAD+Gem (a combination of both AAD and Gem) in 200 μl PBS. Tumor size is measured by caliper and tumor volume is calculated using formula: (length×width^2)/2. Body weight is measured every week. After the mice are sacrificed by end of the time course, the tumors are excised and weighed. […] The difference in the tumor size between control and AAD fusion protein-treatment group is about 60% at Day 28.

[2] = system: 22Rv1 prostate cancer cell xenografts; experiment: In vivo efficacy on 22Rv1 prostate cancer cell xenografts; design: species or system Nude balb/c mice (human prostate cancer xenograft); settings: 10 mg/kg once a week, intraperitoneal
Protocol: Nude balb/c mice (4-6 weeks) are used and they are allowed to acclimatize for a week before the treatment. Mice are inoculated subcutaneously with 3×10^6 cancer cells in 100 μl PBS. Two weeks later, the mice are randomly separated into four groups of 5 animals in each group. Mice are intraperitoneally administered with PBS (control), AAD (5 U; twice a week), Docetaxel, DTX (10 mg/kg; once a week) or AAD+DTX (a combination of both AAD and DTX) in 200 ul PBS. Tumor size is measured by caliper and tumor volume is calculated using formula: (length×width^2)/2. Body weight is measured every week. After the mice are sacrificed by end of the time course, the tumors are excised and weighed.
The difference in the tumor size between control and AAD fusion protein- or DTX-treatment groups are about 55% and 54% at Day 22, respectively. Besides, the combination of AAD fusion protein and DTX-treatment group has a synergistic effect on tumor growth inhibition. Tumor growth of the combination treatment group is inhibited by about 94% when compared to that of the control group.

| SMILES | tumor size compared to control [1] | difference in the tumor size between control and DTX-treatment group ([2]; Day 22) [%] | tumor size compared to control ([2]; end of the time course) |
| --- | --- | --- | --- |
| Nc1ccn([C@@H]2O[C@H](CO)[C@@H](O)C2(F)F)c(=O)n1 [Gemcitabine] | significantly lower than that in control |  |  |
| CC(=O)O[C@@]12CO[C@@H]1C[C@H](O)[C@@]1(C)C(=O)[C@H](O)C3=C(C)[C@@H](OC(=O)[C@H](O)[C@@H](NC(=O)OC(C)(C)C)c4ccccc4)C[C@@](O)([C@@H](OC(=O)c4ccccc4)[C@H]21)C3(C)C [docetaxel] |  | ~54 | significantly lower than that in control |
